Data set [1] deals with T1, HDAC8 (Homo sapiens, UniProt Q9BY41).
T1 sequence (Q9BY41 1-377): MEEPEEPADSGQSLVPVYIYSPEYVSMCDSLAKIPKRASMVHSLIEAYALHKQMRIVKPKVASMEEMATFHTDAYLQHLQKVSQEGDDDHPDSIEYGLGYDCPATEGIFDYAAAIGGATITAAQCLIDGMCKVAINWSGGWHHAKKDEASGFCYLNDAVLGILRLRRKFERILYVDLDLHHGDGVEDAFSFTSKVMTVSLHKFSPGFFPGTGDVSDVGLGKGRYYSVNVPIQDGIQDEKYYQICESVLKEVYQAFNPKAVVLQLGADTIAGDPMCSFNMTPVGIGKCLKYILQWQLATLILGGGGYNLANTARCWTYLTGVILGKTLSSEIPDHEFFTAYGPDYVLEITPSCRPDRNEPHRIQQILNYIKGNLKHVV
Briefly: human recombinant HDAC inhibition assay. It counts as biochemical. As to conditions: read-out: Ki value HDAC8.

Data set [2] deals with RAW264.7 macrophages. Briefly: Viability assay. In kind it is cell-based, murine. The following applies: C646 concentrations above 30 μM, 20 hrs.
The target of data set [3] is HDAC2 (Homo sapiens, UniProt Q92769). Briefly: human recombinant HDAC inhibition assay and Lineweaver-Burk plots. It counts as biochemical.
Data set [4] relates to murine precision-cut lung slices (PCLS). It counts as cell-based.
Data set [5] addresses HDAC3 (Homo sapiens, UniProt O15379). Briefly: human recombinant HDAC inhibition assay. The following applies: read-out: Ki value HDAC3. In kind it is biochemical.
In data set [6] the test system is α-tubulin acetylation in RAW264.7 cells. Briefly: α-tubulin acetylation immunoblot. In kind it is cell-based, murine. Background: Immunoblotting shows a protein as a band on a membrane.
Data set [7] deals with HDAC1 (Homo sapiens, UniProt Q13547). As to the kind of experiment: human recombinant HDAC inhibition assay. In kind it is biochemical. The following applies: N.I. = no inhibition.
Data set [8] has as its system NF-κB promoter activity in RAW-Blue macrophages. As to the kind of experiment: RAW-Blue NF-κB reporter gene assay. It counts as cell-based, murine. As to conditions: 16 hrs pre-treatment + 4 hrs stimulus. (In general: In a reporter assay the amount or activity of a reporter protein is the signal.)
In data set [9] the target is T2, lysine acetyltransferase 8 (KAT8) (Homo sapiens, UniProt Q9H7Z6).
T2 sequence (Q9H7Z6 1-458): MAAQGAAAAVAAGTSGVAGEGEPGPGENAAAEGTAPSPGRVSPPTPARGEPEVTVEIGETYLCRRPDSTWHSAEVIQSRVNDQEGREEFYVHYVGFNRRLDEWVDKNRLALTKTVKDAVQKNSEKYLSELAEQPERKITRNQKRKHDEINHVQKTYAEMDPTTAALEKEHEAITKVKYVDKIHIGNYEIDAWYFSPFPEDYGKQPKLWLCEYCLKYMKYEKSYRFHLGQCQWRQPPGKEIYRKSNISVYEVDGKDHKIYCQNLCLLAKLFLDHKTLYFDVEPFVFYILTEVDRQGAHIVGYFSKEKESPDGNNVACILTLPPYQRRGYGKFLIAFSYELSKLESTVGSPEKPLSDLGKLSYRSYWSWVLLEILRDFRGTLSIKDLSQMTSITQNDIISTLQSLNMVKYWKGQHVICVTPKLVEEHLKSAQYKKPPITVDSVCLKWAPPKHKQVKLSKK
As to the kind of experiment: KAT8 activity assay. In kind it is biochemical. As to conditions: N.I. = no inhibition.

In data set [10] the target is T3, HDAC6 (Homo sapiens, UniProt Q9UBN7).
T3 sequence (Q9UBN7 1-1215): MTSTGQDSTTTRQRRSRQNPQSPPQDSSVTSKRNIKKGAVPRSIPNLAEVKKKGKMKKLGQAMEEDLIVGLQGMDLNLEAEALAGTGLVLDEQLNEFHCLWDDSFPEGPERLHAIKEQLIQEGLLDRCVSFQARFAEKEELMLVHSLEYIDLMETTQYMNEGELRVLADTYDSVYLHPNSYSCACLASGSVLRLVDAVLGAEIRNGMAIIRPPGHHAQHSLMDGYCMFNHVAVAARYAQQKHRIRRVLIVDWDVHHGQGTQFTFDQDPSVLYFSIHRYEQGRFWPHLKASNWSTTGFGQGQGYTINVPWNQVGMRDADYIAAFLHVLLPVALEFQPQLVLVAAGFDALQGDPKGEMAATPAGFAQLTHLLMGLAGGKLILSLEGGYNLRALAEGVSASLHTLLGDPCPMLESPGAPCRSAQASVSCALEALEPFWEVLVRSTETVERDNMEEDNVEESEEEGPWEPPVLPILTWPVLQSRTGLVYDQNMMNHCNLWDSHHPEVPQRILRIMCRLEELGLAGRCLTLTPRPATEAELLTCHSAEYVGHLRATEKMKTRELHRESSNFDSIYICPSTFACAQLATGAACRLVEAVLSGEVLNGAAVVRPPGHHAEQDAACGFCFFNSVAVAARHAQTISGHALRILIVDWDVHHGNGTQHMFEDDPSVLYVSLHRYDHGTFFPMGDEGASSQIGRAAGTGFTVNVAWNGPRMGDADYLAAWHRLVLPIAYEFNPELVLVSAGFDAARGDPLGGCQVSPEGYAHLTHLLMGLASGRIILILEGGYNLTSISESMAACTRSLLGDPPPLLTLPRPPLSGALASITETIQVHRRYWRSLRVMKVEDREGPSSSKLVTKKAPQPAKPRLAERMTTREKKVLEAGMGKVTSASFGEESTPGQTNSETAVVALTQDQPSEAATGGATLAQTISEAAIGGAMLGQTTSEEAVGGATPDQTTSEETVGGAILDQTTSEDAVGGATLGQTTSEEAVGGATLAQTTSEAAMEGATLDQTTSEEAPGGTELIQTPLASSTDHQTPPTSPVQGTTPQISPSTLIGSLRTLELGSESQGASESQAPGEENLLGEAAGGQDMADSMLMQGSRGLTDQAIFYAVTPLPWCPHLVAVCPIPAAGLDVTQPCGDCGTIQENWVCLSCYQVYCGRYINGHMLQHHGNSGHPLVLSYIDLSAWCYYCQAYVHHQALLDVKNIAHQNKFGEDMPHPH
As to the kind of experiment: human recombinant HDAC inhibition assay and Lineweaver-Burk plots. It counts as biochemical.

The test system of data set [11] is RAW264.7 murine macrophages. Briefly: Gene expression analysis in RAW264.7 by RT-q-PCR after LPS and IFNγ stimulus. In kind it is cell-based.
Data set [12] has as its system precision-cut lung slices (PCLS). Briefly: PCLS viability by lactate dehydrogenase. It counts as cell-based, murine. As to conditions: C646 concentrations above 25 μM.
For data set [13], the system named is histone H3 and H4 acetylation in RAW264.7 cells. As to the kind of experiment: Histone acetylation by acetic anhydride-d6 labelling and LC-MS/MS. It counts as cell-based, murine.
For data set [14], the system named is type I and II HDACs. Briefly: recombinant HDAC inhibition, summary over isoenzymes. In kind it is biochemical, human.
Where [15] appears, read: Boc-Lys-(Ac)-AMC as substrate, Lineweaver-Burk plot.
Where [16] appears, read: RAW264.7, C646 at 30 μM, downregulation.
Where [17] appears, read: C646 at 15, 20, 25 or 30 μM for 6 hrs.

Structures are written as SMILES. Like-named read-outs stand apart in the source and are kept apart here. Some results are limits rather than exact numbers.

As a reminder, the Ki is the equilibrium dissociation constant of an inhibitor or competing ligand from its target.

Chain of HDAC2 (Q92769 whole entry): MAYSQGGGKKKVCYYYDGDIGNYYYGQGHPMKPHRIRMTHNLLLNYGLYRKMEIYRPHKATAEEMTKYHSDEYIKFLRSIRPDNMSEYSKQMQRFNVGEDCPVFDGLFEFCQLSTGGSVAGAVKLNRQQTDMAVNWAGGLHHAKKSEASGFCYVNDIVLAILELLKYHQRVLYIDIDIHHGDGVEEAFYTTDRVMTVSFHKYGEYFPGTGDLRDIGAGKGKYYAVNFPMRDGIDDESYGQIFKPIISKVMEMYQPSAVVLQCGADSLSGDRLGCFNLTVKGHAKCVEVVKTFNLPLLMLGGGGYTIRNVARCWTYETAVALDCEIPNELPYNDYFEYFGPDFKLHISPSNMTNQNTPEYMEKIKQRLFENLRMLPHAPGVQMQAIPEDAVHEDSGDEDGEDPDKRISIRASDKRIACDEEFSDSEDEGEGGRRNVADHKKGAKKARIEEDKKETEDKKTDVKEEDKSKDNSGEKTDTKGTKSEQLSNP
Chain of HDAC1 (Q13547 whole entry): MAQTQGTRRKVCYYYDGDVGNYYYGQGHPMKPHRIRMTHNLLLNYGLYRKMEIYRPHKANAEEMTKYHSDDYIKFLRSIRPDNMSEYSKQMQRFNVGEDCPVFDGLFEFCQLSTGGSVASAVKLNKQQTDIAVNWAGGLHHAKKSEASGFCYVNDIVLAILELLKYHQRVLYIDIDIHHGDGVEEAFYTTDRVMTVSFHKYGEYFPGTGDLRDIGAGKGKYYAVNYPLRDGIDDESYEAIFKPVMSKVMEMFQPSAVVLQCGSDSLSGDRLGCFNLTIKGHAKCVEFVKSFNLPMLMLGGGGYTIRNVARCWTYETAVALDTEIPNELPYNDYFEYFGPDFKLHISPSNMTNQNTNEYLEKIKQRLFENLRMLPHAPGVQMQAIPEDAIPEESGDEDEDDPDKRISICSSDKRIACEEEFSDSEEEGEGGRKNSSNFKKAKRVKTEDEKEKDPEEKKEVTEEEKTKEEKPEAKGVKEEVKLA
Chain of HDAC3 (O15379 whole entry): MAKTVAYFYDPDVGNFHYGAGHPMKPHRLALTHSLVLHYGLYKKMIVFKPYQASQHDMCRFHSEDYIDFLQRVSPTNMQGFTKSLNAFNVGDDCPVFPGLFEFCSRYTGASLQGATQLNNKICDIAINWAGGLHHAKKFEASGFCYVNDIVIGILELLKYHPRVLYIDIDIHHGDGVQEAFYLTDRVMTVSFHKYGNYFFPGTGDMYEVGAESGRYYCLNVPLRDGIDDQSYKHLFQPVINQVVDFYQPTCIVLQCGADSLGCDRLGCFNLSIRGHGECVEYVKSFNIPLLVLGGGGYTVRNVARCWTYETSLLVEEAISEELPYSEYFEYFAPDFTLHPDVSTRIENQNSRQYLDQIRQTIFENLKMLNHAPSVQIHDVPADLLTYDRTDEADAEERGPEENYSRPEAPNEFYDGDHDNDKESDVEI
Chain of HDAC3 (Q9Y618 395-489 partner limits assumed): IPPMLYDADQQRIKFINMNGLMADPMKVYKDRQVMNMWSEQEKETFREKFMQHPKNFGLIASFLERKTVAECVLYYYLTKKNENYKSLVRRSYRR

Take `CC1=NN(c2ccc(C(=O)O)cc2)C(=O)/C1=C\c1ccc(-c2cc(C)c(C)cc2[N+](=O)[O-])o1` [C646]: the Ki is 11 ± 1 µM in data set [1], 15 ± 1 µM in data set [3] (read-out: Ki value HDAC2), 25 ± 5 µM in data set [5] and 7 ± 1 µM in data set [10] (read-out: Ki value HDAC6). In addition, the “viability of the macrophages” value in data set [2] is recorded as “decreased viability”. Further, in data set [3] (setting [15]), the “kinetics of inhibition of HDAC2” value is on record as “non-competitive inhibition”. Moreover, in data set [4] (C646 at 25 μM, downregulation), the “percentage of change in IL-1β gene expression compared to vehicle” value was 72.3%. The “percentage of change in IL-12b gene expression compared to vehicle” value in data set [4] (C646 at 25 μM, downregulation) came to 85.0%; in [11] (setting [16]), 54.2%. Besides, the “percentage of change in TNFα gene expression compared to vehicle” value came out at 79.1% in data set [4] (C646 at 25 μM, downregulation) and 54.1% in data set [11] (setting [16]). Besides, in data set [4] (C646 at 25 μM, downregulation), the “percentage of change in iNOS gene expression compared to vehicle” value amounted to 58.4%. The α-tubulin acetylation entry in [6] (C646 15 μM for 6 hrs) is “but not at 15 μM”; in [6] (C646 30 μM for 6 hrs) it was “pronounced inhibition”; in [6] (C646 30 μM for 20 hrs), “inhibition of α-tubulin acetylation was also observed”. In addition, the “Ki value HDAC1” value in data set [7] is reported as “N.I”. In addition, the “LPS and IFNγ induced NF-κB promoter activity” value in data set [8] (C646 at 15 μM or higher (up to 30 μM)) is on record as “significant inhibition”. In data set [9], the “Ki value KAT8” value is recorded as “N.I”. Besides, the “kinetics of inhibition of HDAC6” value in data set [10] (setting [15]) is “non-competitive inhibition”. Moreover, the “viability of PCLS” value in data set [12] is “decreased viability”. For the same compound, the figures for the “acetylation status of histone H3 res. 18-26 (H3 K18 and H3 K23)” value in data set [13] (C646 30 μM for 6 hrs) and in data set [13] (C646 at concentrations lower than 30 μM for 6 hrs) were “small yet significant increase” and “not significant”, respectively. In addition, the “acetylation status of histone H4 res. 4-17” value in [13] (setting [17]) is listed as “No significant changes”. Moreover, in data set [13] (setting [17]), the “acetylation status of other histone H4 peptides” value is reported as “no changes in acetylation status”. For the same compound, the “histone acetylation (H3 res. 18-26, H4 res. 4-17)” value in data set [13] (C646 at 15, 20, 25 or 30 μM for 20 hrs, no inflammatory stimulus) is “No changes in histone acetylation”. Moreover, in data set [14], the “concentration from which histone deacetylases are inhibited” value is no less than 7 µM.

In the case of `O=C(CCCCCCC(=O)Nc1ccccc1)NO` [SAHA, suberanilohydroxamic acid], the “percentage of change in iNOS gene expression compared to vehicle” value in data set [4] (SAHA at 0.41 μM, downregulation) is listed as 39.9%. In data set [4] (SAHA at 0.41 μM, upregulation), the “percentage of change in IL-1β gene expression compared to vehicle” value came to 41.5% and the “percentage of change in IL-6 gene expression compared to vehicle” value is listed as 58.8%. The α-tubulin acetylation result in data set [6] (SAHA, data not shown) was “upregulated”. In addition, the “LPS and IFNγ induced NF-κB promoter activity” value in data set [8] (SAHA 0.41 μM) is on record as “further enhanced”. For the same compound, the “percentage of change in IL-1β gene expression compared to vehicle” value in data set [11] (RAW264.7, SAHA at 0.41 μM, upregulation) stood at 317%. The “acetylation of histone-derived peptides H4 4-17 and H3 18-26” value in data set [13] (SAHA 0.41 µM for 20 hrs) was “increased acetylation”.
